Measurements reported in patent US12139520B2 (priority 2020, dated 2024).
Bridge positions count the residues as written; N and C are the ends. Square brackets hold non-standard residues; d marks the D form. Peptide text beside a SMILES is read from it. Hyp = O=C(O)[C@@H]1C[C@@H](O)CN1; Cit = NC(=O)NCCC[C@H](N)C(=O)O

Assays:
[1] = Physical stability of peptide analogues (Thioflavin T fibrillation); type: physicochemical; details: maximum ThT signal normalized between hAMY maximum and buffer background; 40° C., shaking, four days; pH 7 per table title
Method in brief: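 Peptides in 50 mM sodium acetate pH 4 or 50 mM sodium phosphate pH 7 were preincubated 1 h, mixed with 4 μM ThT, held at 40° C with 700 rpm shaking before each read. Fluorescence (ex 450/em 480 nm) every 10 min for four days; LOESS-smoothed maximum signal normalized in percent between hAMY and buffer.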

hAMY3 receptor = target: T1, hAMY3 receptor (Homo sapiens, UniProt O60896+P30988); assay: cAMP assay for in vitro receptor activation, hAMY3-R; type: cell-based; details: cAMP assay, hAMY3 receptor; read-out: hAMY3R EC50
T1 sequence (P30988 25-474): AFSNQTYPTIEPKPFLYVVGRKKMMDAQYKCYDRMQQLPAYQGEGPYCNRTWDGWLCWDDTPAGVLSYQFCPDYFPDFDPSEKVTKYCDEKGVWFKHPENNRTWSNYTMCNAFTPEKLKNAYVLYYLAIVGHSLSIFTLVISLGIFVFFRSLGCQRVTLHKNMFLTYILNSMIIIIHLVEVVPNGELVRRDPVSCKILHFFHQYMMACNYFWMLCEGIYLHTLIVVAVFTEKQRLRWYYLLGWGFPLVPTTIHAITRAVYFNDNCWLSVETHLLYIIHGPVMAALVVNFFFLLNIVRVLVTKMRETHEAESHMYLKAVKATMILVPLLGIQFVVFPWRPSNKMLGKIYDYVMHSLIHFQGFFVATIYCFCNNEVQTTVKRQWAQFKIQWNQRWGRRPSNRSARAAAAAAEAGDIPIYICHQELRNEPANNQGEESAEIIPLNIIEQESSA
T1 sequence (O60896 24-148 partner): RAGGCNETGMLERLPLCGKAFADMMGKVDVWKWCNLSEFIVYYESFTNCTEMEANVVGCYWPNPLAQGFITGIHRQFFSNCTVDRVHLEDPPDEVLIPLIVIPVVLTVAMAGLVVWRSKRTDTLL
Method in brief: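 Thawed cells from a sub-cloned monoclonal hAMY3-overexpressing line are plated in DPBS containing 0.05% casein and 0.5 mM IBMX. Test compounds are added immediately at graded doses for 30 min at room temperature. Reagents for cAMP detection are then added, and TR-FRET is recorded after one hour.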

hAM1 receptor = hAM1 receptor (Homo sapiens, UniProt O60895+Q16602); assay: cAMP assay for in vitro receptor activation, hAM1-R; type: cell-based; details: cAMP assay, hAM1 receptor; read-out: hAM1R EC50
Method in brief: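 Receptor activation, read as cAMP, was assessed in thawed cells of a monoclonal hAM1-overexpressing stable line, plated at 8000 cells/well in DPBS supplemented with 0.05% casein and 0.5 mM IBMX.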

Chain of hAM1 receptor (Q16602 23-461): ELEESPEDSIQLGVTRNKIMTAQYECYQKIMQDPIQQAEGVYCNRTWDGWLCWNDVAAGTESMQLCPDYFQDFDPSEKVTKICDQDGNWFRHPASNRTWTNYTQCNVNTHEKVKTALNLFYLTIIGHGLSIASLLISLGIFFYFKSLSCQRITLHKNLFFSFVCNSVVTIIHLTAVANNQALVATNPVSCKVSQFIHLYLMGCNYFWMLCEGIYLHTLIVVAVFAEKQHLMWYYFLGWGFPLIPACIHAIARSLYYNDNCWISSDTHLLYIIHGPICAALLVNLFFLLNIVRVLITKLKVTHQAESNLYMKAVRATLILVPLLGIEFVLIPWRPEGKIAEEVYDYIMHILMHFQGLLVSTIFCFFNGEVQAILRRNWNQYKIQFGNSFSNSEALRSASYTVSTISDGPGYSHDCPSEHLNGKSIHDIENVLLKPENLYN
Chain of hAM1 receptor (O60895 43-175 partner): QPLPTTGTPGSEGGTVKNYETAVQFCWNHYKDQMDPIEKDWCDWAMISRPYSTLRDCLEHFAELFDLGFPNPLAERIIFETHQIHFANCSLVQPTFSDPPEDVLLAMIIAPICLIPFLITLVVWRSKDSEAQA

Row | SMILES | Max ThT signal (%) [1] [%] | EC50 (hAMY3 receptor) [nM] | EC50 (hAM1 receptor) [nM]
1 | CC[C@H](C)[C@H](NC(=O)[C@H](CCC(N)=O)NC(=O)[C@H](Cc1c[nH]cn1)NC(=O)[C@H](C)NC(=O)[C@H](CC(C)C)NC(=O)[C@H](CCCNC(N)=O)NC(=O)[C@H](CCC(N)=O)NC(=O)[C@@H](NC(=O)[C@@H](NC(=O)[C@@H]1CSSC[C@H](NC(=O)[C@@H](N)CCCCN)C(=O)N[C@@H](CC(N)=O)C(=O)N[C@@H]([C@@H](C)O)C(=O)N[C@@H](C)C(=O)N[C@@H]([C@@H](C)O)C(=O)N1)[C@@H](C)O)C(C)C)C(=O)N[C@@H](Cc1ccc(O)cc1)C(=O)N[C@@H](CCC(N)=O)C(=O)N[C@@H](C)C(=O)N[C@H](C(=O)N[C@@H](CC(=O)O)C(=O)N[C@@H](CCCCN)C(=O)N[C@@H](CC(=O)O)C(=O)N[C@@H](CCCCN)C(=O)N[C@@H](CC(=O)O)C(=O)N[C@@H](CC(N)=O)C(=O)N[C@H](C(=O)N[C@@H](C)C(=O)N1CCC[C@H]1C(=O)N1CCC[C@H]1C(=O)N[C@H](C(=O)N[C@@H](CC(N)=O)C(=O)N[C@H](C(=O)NCC(=O)N[C@@H](CO)C(=O)N[C@@H](CC(N)=O)C(=O)NCC(=O)N1C[C@H](O)C[C@H]1C(N)=O)C(C)C)[C@@H](C)O)C(C)C)[C@@H](C)O [compound 276] (H-KCNTATCTVQ[Cit]LAHQIYQATDKDKDNVAPPTNVGSNG[Hyp]-NH2; disulfide 2-7; N-terminus assumed) | 8.950 | 0.056 | > 5000
2 | CC[C@H](C)[C@H](NC(=O)[C@H](CC(N)=O)NC(=O)[C@@H](NC(=O)[C@H](CCCNC(=N)N)NC(=O)[C@@H]1CCCN1C(=O)[C@H](C)NC(=O)[C@@H](NC(=O)[C@H](CC(N)=O)NC(=O)[C@H](CC(=O)O)NC(=O)[C@H](CCCCN)NC(=O)[C@H](CC(=O)O)NC(=O)[C@H](CCCCN)NC(=O)[C@H](CC(=O)O)NC(=O)[C@@H](NC(=O)[C@H](Cc1ccccc1)NC(=O)[C@H](CCC(N)=O)NC(=O)[C@H](Cc1ccc(O)cc1)NC(=O)[C@@H](NC(=O)[C@H](CCC(N)=O)NC(=O)[C@H](Cc1c[nH]cn1)NC(=O)[C@H](C)NC(=O)[C@H](CC(C)C)NC(=O)[C@H](CCCNC(N)=O)NC(=O)[C@H](CCC(N)=O)NC(=O)[C@@H](NC(=O)[C@@H](NC(=O)[C@@H]1CSSC[C@H](NC(=O)CN)C(=O)N[C@@H](CCCNC(=N)N)C(=O)N[C@@H]([C@@H](C)O)C(=O)NCC(=O)N[C@@H]([C@@H](C)O)C(=O)N1)[C@@H](C)O)C(C)C)[C@@H](C)CC)[C@@H](C)O)C(C)C)[C@@H](C)O)C(=O)NCC(=O)N1CCC[C@H]1C(=O)N[C@@H](CCC(N)=O)C(=O)NCC(=O)N1C[C@H](O)C[C@H]1C(N)=O [compound 280] (H-GCRTGTCTVQ[Cit]LAHQIYQFTDKDKDNVAPRTNIGPQG[Hyp]-NH2; disulfide 2-7; N-terminus assumed) | 26.450 | 0.024 | > 5000
3 | CC[C@H](C)[C@H](NC(=O)[C@H](CCC(N)=O)NC(=O)[C@H](Cc1c[nH]cn1)NC(=O)[C@H](C)NC(=O)[C@H](CC(C)C)NC(=O)[C@H](CCCNC(N)=O)NC(=O)[C@H](CCC(N)=O)NC(=O)[C@@H](NC(=O)[C@@H](NC(=O)[C@@H]1CSSC[C@H](NC(=O)CN)C(=O)N[C@@H](CCCNC(=N)N)C(=O)N[C@@H]([C@@H](C)O)C(=O)NCC(=O)N[C@@H]([C@@H](C)O)C(=O)N1)[C@@H](C)O)C(C)C)C(=O)N[C@@H](Cc1ccc(O)cc1)C(=O)N[C@@H](CCC(N)=O)C(=O)N[C@@H](Cc1ccccc1)C(=O)N[C@H](C(=O)N[C@@H](CC(=O)O)C(=O)N[C@@H](CCCCN)C(=O)N[C@@H](CC(=O)O)C(=O)N[C@@H](CCCCN)C(=O)N[C@@H](CC(=O)O)C(=O)N[C@@H](CC(N)=O)C(=O)N[C@H](C(=O)N[C@@H](C)C(=O)N1CCC[C@H]1C(=O)N[C@@H](CCCNC(=N)N)C(=O)N[C@@H](CO)C(=O)N[C@@H](CC(N)=O)C(=O)N[C@H](C(=O)NCC(=O)N1CCC[C@H]1C(=O)N[C@@H](CCC(N)=O)C(=O)NCC(=O)N1C[C@H](O)C[C@H]1C(N)=O)C(C)C)C(C)C)[C@@H](C)O [compound 281] (H-GCRTGTCTVQ[Cit]LAHQIYQFTDKDKDNVAPRSNVGPQG[Hyp]-NH2; disulfide 2-7; N-terminus assumed) | 22.650 | 0.034 | > 5000
4 | CC[C@H](C)[C@H](NC(=O)[C@H](CCC(N)=O)NC(=O)[C@H](Cc1c[nH]cn1)NC(=O)[C@H](C)NC(=O)[C@H](CC(C)C)NC(=O)[C@H](CCCNC(N)=O)NC(=O)[C@H](CCC(N)=O)NC(=O)[C@@H](NC(=O)[C@@H](NC(=O)[C@@H]1CSSC[C@H](NC(=O)CN)C(=O)N[C@@H](CCCNC(=N)N)C(=O)N[C@@H](Cc2ccccc2)C(=O)NCC(=O)N[C@@H]([C@@H](C)O)C(=O)N1)[C@@H](C)O)C(C)C)C(=O)N[C@@H](Cc1ccc(O)cc1)C(=O)N[C@@H](CCC(N)=O)C(=O)N[C@@H](Cc1ccccc1)C(=O)N[C@H](C(=O)N[C@@H](CC(=O)O)C(=O)N[C@@H](CCCCN)C(=O)N[C@@H](CC(=O)O)C(=O)N[C@@H](CCCCN)C(=O)N[C@@H](CC(=O)O)C(=O)N[C@@H](CC(N)=O)C(=O)N[C@H](C(=O)N[C@@H](C)C(=O)N1CCC[C@H]1C(=O)N[C@@H](CCCNC(=N)N)C(=O)N[C@H](C(=O)N[C@@H](CC(N)=O)C(=O)N[C@H](C(=O)N[C@@H](CO)C(=O)N1CCC[C@H]1C(=O)N[C@@H](CCC(N)=O)C(=O)NCC(=O)N1C[C@H](O)C[C@H]1C(N)=O)C(C)C)[C@@H](C)O)C(C)C)[C@@H](C)O [compound 283] (H-GCRFGTCTVQ[Cit]LAHQIYQFTDKDKDNVAPRTNVSPQG[Hyp]-NH2; disulfide 2-7; N-terminus assumed) | 17.100 | 0.035 | > 5000
5 | CC[C@H](C)[C@H](NC(=O)[C@H](CCC(N)=O)NC(=O)[C@H](Cc1c[nH]cn1)NC(=O)[C@H](C)NC(=O)[C@H](CC(C)C)NC(=O)[C@H](CCCNC(N)=O)NC(=O)[C@H](CCC(N)=O)NC(=O)[C@@H](NC(=O)[C@@H](NC(=O)[C@@H]1CSSC[C@H](NC(=O)CN)C(=O)N[C@@H](CCCNC(=N)N)C(=O)N[C@@H]([C@@H](C)O)C(=O)NCC(=O)N[C@@H]([C@@H](C)O)C(=O)N1)[C@@H](C)O)C(C)C)C(=O)N[C@@H](Cc1ccc(O)cc1)C(=O)N[C@@H](CCC(N)=O)C(=O)N[C@@H](Cc1ccccc1)C(=O)N[C@H](C(=O)N[C@@H](CC(=O)O)C(=O)N[C@@H](CCCCN)C(=O)N[C@@H](CC(=O)O)C(=O)N[C@@H](CCCCN)C(=O)N[C@@H](CC(=O)O)C(=O)N[C@@H](CC(N)=O)C(=O)N[C@H](C(=O)N[C@@H](C)C(=O)N1CCC[C@H]1C(=O)N[C@@H](CCCNC(=N)N)C(=O)N[C@@H](CO)C(=O)N[C@@H](CCCCN)C(=O)N[C@H](C(=O)NCC(=O)N1CCC[C@H]1C(=O)N[C@@H](CCC(N)=O)C(=O)NCC(=O)N[C@@H](Cc1ccc(O)cc1)C(N)=O)C(C)C)C(C)C)[C@@H](C)O [compound 285] (H-GCRTGTCTVQ[Cit]LAHQIYQFTDKDKDNVAPRSKVGPQGY-NH2; disulfide 2-7; N-terminus assumed) | 31.200 | 0.157 | > 5000
6 | CC[C@H](C)[C@H](NC(=O)[C@H](CCC(N)=O)NC(=O)[C@H](Cc1c[nH]cn1)NC(=O)[C@H](C)NC(=O)[C@H](CC(C)C)NC(=O)[C@H](CCCNC(N)=O)NC(=O)[C@H](CCC(N)=O)NC(=O)[C@@H](NC(=O)[C@@H](NC(=O)[C@@H]1CSSC[C@H](NC(=O)CN)C(=O)N[C@@H](CCCNC(=N)N)C(=O)N[C@@H](Cc2ccccc2)C(=O)NCC(=O)N[C@@H]([C@@H](C)O)C(=O)N1)[C@@H](C)O)C(C)C)C(=O)N[C@@H](Cc1ccc(O)cc1)C(=O)N[C@@H](CCC(N)=O)C(=O)N[C@@H](Cc1ccccc1)C(=O)N[C@H](C(=O)N[C@@H](CC(=O)O)C(=O)N[C@@H](CCCCN)C(=O)N[C@@H](CC(=O)O)C(=O)N[C@@H](CCCCN)C(=O)N[C@@H](CC(=O)O)C(=O)N[C@@H](CC(N)=O)C(=O)N[C@H](C(=O)N[C@@H](C)C(=O)N1CCC[C@H]1C(=O)N[C@@H](CCCNC(=N)N)C(=O)N[C@H](C(=O)N[C@@H](CCCCN)C(=O)N[C@H](C(=O)N[C@@H](CO)C(=O)N1CCC[C@H]1C(=O)N[C@@H](CC(N)=O)C(=O)NCC(=O)N1C[C@H](O)C[C@H]1C(N)=O)C(C)C)[C@@H](C)O)C(C)C)[C@@H](C)O [compound 288] (H-GCRFGTCTVQ[Cit]LAHQIYQFTDKDKDNVAPRTKVSPNG[Hyp]-NH2; disulfide 2-7; N-terminus assumed) | 17.450 | 0.03 | > 5000
